Positions of bridges follow the written chain, without caps; N, C: chain ends. Non-standard residues stand in square brackets, D forms with d. Residues, ends and D or L forms follow the SMILES beside them.
Key:
Modified LD50 technique = assay type: in vivo, mouse; details: 11 mg i.p.
[1] = Acute and 7-day repeat dose toxicity study; assay type: in vivo, rat
Excerpt: That is, all animals remained clinically normal throughout.

focal ischemic lesion = assay: Intraluminal thread model of ischaemia reperfusion injury (MCAo 90 minutes); assay type: in vivo, rats
Procedure: The intraluminal thread (ILT) model is representative of clinical ischaemia reperfusion injury, it gives a focal ischemic lesion and is widely used in the pharmaceutical industry to test candidate compounds for neuroprotective efficacy. Fed, male Sprague Dawley rats (Charles Rivers, approximately 330 g) were anaesthetized with 2% halothane in 70/30 % N2O/O2 and the left middle cerebral artery occluded (MCAo) for 90 minutes using the ILT approach. The MCAo is achieved by the placement of a 3/0 nylon suture into the internal carotid artery and advancing it approximately 18 mm from the carotid bifurcation such that its tip is positioned approximately 1 mm beyond the origin of the MCA. […]
Throughout the surgical period, rectal temperature was monitored and maintained at 37°C with a heated blanket and feedback rectal temperature probe and arterial blood gases were measured prior to and immediately post MCAo. […]
The ischemic damage was assessed by conventional magnetic resonance imaging (T2, diffusion and proton density sequences) on day 1, 2 and 3 post MCAo. […]
After the final MR analysis at 72 hour post ictus the rats were decapitated, the brains removed, stored fresh in cryo-protecting medium at -70°C prior to quantitative immunohistochemical analysis of infiltrating leukocytes (Figure 34). […]

[2] = test system: T cell-dependent and T cell-independent antibody response; assay: Antibody response after immunization with sheep red blood cells; design: species or system mice; details: mouse, in vivo
[3] = test system: TGFβ1 induced THP-1 migration; assay: THP-1 trans-well migration assay, TGFβ1 as non-chemokine control chemoattractant; assay type: cell-based, human; details: for % inhibition at 100 µM versus TGFβ1: THP-1 migration, agent at 100 µM, n.s. = no statistically significant inhibition
Procedure: Any method suitable for counting cells can be used, for example, counting with a hemocytometer, incubation of the cells with MTT (see above), or FACS analysis. A negative control assay is also performed, using TGF-β or another non-chemokine chemoattractant (e.g., IL1β or TNFα). To assess whether the agent is cytotoxic, the same concentrations of agent are incubated with THP-1 cells. Agents which 1) are not cytotoxic at levels which inhibit migration, 2) are ineffective at inhibiting the negative control-induced migration, and 3) reduce or inhibit chemokine-induced THP-1 migration, are agents which fall within the scope of the invention.
For this assay, THP-1 cells were maintained at a density of 4 × 10^5 cells per ml in RPMI-1640 supplemented with 10% fetal calf serum + 20 µM 2-mercaptoethanol. Chemotaxis was induced in a 96-well disposable chemotaxis chamber fitted with a 5 µM polycarbonate filter (PVP free, ChemoTX, Neuroprobe Inc., Cabin John). Twenty-nine µl of chemoattractant (recombinant human chemokine; 50 ng/ml, i.e., 5.9 nM) or control (100 ng/ml TGFβ) was added to the lower compartment of each well. The framed filter was aligned with the holes in the corner of the filter frame and placed over the wells.
Five × 10^4 THP-1 cells in 25 µl of RPMI-1640 were added to the upper compartment. Peptides were dissolved in Milli Q water and then serially diluted in culture medium. […]
After incubation, the cells were gently removed from the top of the filter with a pipette, 20 µl of 20 mM EDTA in PBS was added into each top well, and the mixture was incubated for 20 minutes at 4°C. […] A standard curve was prepared to accurately quantify the number of THP-1 cells that had migrated. […] Absorbance of converted dye was measured at a wavelength of 595 nm using an ELISA plate reader. The number of cells that had migrated in each well was determined by interpolation of the standard curve.
To investigate the receptor specificity of peptide 3 inhibition, the ED50 was determined for peptide 3(1-12)[MCP-1] […]

Row | Compound | lethality after intraperitoneal administration (in words) (Modified LD50 technique) | acute toxicity (in words) ([1]; 1 or 10 mg (5-50 mg/kg) i.v.) | 7-day repeat dose toxicity (in words) ([1]; subcutaneous osmotic mini-pump, about 43 µg/hr for 7 days (7.2 mg)) | reduction in the mean infarct volume (focal ischemic lesion; 2 mg/kg bolus, then 0.5 mg/kg/hr i.v. for 72 hours, all time points, p < 0.0001) [%] | neutrophil accumulation in the penumbra of the lesion (in words) (focal ischemic lesion; rat, in vivo) | T cell-dependent antibody response (in words) [2] | % inhibition at 100 µM versus TGFβ1 [3] | % inhibition at 100 µM versus TGFβ1 ([3]; listed as peptide 1[MCP-1]) | ED50 (µM) versus TGFβ1 ([3]; inhibition of THP-1 migration, n.s. = not statistically significant)
1 | CC[C@@H](C)[C@H]1NC(=O)[C@@H](CCC(N)=O)NC(=O)[C@H](N)CSSC[C@H](C(N)=O)NC(=O)[C@@H](CC(C)C)NC(=O)[C@@H](CC(=O)O)NC(=O)[C@H]2CCCN2C(=O)[C@@H](CCCCN)NC(=O)[C@@H](CCC(N)=O)NC(=O)[C@@H](CCCCN)NC(=O)[C@@H](Cc2c[nH]c3ccccc23)NC1=O (H-[dC][dQ][dI][dW][dK][dQ][dK][dP][dD][dL][dC]-NH2; disulfide 1-11) | did not result in lethality | no clinically detectable changes | no dose dependent or clinically significant changes | 50 | complete suppression | prevented |  |  | 
2 | CC[C@H](C)[C@H](NC(=O)[C@H](C)NC(=O)[C@H](CC(=O)O)NC(=O)[C@@H]1CCCN1C(=O)[C@H](CCC(N)=O)NC(=O)[C@H](C)N)C(=O)N[C@@H](CC(N)=O)C(=O)N[C@@H](C)C(=O)N1CCC[C@H]1C(=O)N[C@H](C(=O)N[C@H](C(=O)N[C@@H](CS)C(=O)N[C@@H](CS)C(=O)O)[C@@H](C)O)C(C)C [Peptide 1] (H-AQPDAINAPVTCC-OH; N-terminus and C-terminus assumed) |  |  |  |  |  |  | n.s. | did not significantly inhibit | n.s.
